Literature values, collected in US12630801B2, “Stem cell-derived Schwann cells” (MEMORIAL SLOAN-KETTERING CANCER CENTER, priority 2016, dated 2026).

Legend:
Details in all cases: Yu et al. 2008; Cuny et al. 2008
ALK2 = biological target: T1, ALK2 (Homo sapiens, UniProt Q04771)
T1 sequence (Q04771 21-509): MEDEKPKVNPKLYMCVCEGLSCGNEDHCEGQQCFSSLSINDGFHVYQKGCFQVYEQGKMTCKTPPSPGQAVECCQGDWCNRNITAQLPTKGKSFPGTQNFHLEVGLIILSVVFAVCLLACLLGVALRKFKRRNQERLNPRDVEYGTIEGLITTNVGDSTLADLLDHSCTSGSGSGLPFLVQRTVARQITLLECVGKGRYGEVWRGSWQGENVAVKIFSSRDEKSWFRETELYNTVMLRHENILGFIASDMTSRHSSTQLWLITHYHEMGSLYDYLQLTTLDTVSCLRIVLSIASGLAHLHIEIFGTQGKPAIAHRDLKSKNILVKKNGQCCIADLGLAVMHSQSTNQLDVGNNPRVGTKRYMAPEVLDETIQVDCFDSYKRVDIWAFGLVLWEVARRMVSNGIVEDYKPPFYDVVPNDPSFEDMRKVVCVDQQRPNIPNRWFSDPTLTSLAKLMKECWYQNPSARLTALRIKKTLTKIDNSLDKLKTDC

ALK3 = ALK3 (Homo sapiens, UniProt P36894)
ALK6 = ALK6 (Homo sapiens, UniProt O00238)
ALK6, sequence (O00238 14-502): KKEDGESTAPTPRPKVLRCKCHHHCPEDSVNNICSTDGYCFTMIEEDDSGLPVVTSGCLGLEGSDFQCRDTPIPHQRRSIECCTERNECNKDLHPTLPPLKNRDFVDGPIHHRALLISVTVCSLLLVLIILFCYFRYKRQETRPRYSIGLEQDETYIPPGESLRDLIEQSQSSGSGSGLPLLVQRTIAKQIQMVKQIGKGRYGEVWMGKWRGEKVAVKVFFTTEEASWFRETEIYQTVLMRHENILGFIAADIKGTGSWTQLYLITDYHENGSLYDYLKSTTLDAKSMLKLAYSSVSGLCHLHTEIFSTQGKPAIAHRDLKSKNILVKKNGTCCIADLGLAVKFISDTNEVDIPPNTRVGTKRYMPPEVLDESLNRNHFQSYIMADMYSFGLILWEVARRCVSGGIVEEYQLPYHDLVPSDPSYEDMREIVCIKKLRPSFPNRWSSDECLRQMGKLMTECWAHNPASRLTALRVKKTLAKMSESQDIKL

ALK3, sequence (P36894 24-532, species assumed): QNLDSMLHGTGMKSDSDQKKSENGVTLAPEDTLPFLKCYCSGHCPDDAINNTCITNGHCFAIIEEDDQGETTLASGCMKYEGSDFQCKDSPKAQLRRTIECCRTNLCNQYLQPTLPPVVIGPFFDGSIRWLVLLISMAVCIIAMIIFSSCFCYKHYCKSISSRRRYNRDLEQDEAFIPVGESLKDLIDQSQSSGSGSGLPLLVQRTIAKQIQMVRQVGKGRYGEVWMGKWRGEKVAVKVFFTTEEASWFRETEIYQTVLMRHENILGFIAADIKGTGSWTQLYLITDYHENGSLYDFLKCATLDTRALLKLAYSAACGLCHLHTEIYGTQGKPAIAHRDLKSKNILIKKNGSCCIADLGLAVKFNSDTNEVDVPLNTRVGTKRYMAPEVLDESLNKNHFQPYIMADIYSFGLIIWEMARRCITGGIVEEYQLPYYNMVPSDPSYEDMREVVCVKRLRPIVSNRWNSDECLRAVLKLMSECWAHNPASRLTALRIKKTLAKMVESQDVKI

c1ccc2c(-c3cnn4cc(-c5ccc(N6CCNCC6)cc5)cnc34)ccnc2c1 [LDN193189, 4-(6-(4-(piperazin-1-yl)phenyl)pyrazolo[1,5-a]pyrimidin-3-yl)quinoline]
highly potent small-molecule inhibitor: inhibition of ALK2 (ALK2) | inhibition of ALK3 (ALK3) | inhibition of ALK6 (ALK6)
